This passage reports Ki results from patent US7671048B2, “Substituted imidazo [1,5-a][1,2,4]triazolo[1,5-d][1,4]benzodiazepine derivatives” (priority 2004, dated 2010).

Each structure is given as a SMILES string.

One test concerns the target T1, GABA A receptor α2β3γ2 (Homo sapiens, UniProt P18507+P47869).
T1 construct: expressed in transfected cells; host or cells: HEK293 (transiently transfected), membranes
Put plainly: [3H]flumazenil competition binding, human α2β3γ2. The protocol:
(§1) The affinity of compounds at GABA A receptor subtypes was measured by competition for [^3H]flumazenil (85 Ci/mmol; Roche) binding to HEK293 cells expressing rat (stably transfected) or human (transiently transfected) receptors of composition α1β3γ2, α2β3γ2, α3β3γ2 and α5β3γ2.
(§2) Cell pellets were suspended in Krebs-tris buffer (4.8 mM KCl, 1.2 mM CaCl2, 1.2 mM MgCl2, 120 mM NaCl, 15 mM Tris; pH 7.5; binding assay buffer), homogenized by polytron for ca. 20 sec on ice and centrifuged for 60 min at 4° C. (50000 g; Sorvall, rotor: SM24=20000 rpm). The cell pellets were resuspended in Krebs-tris buffer and homogenized by polytron for ca. 15 sec on ice. Protein was measured (Bradford method, Bio-Rad) and aliquots of 1 mL were prepared and stored at −80° C.
(§3) Radioligand binding assays were carried out in a volume of 200 μL (96-well plates) which contained 100 μL of cell membranes, [^3H]flumazenil at a concentration of 1 nM for α1, α2, α3 subunits and 0.5 nM for α5 subunits and the test compound in the range of 10^−10−3×10^−6 M. Nonspecific binding was defined by 10^−5 M diazepam and typically represented less than 5% of the total binding. Assays were incubated to equilibrium for 1 hour at 4° C. and harvested onto GF/C uni-filters (Packard) by filtration using a Packard harvester and washing with ice-cold-wash buffer (50 mM Tris; pH 7.5). After drying, filter-retained radioactivity was detected by liquid scintillation counting. Ki values were calculated using Excel-Fit (Microsoft) and are the means of two determinations.

A further test deals with T2, GABA A receptor α1β3γ2 (Homo sapiens, UniProt P14867+P18507).
T2 construct: expressed in transfected cells; host or cells: HEK293 (transiently transfected), membranes
Put plainly: [3H]flumazenil competition binding, human α1β3γ2. The procedure: as §1, §2, §3

A further test concerns the target T3, GABA A receptor α5β3γ2 (Homo sapiens, UniProt P18507+P31644).
T3 construct: expressed in transfected cells; host or cells: HEK293 (transiently transfected), membranes
Nature of the test: [3H]flumazenil competition binding, human α5β3γ2. The procedure: as §1, §2, §3

The target of a further test is T4, GABA A receptor α3β3γ2 (Homo sapiens, UniProt P18507+P34903).
T4 construct: expressed in transfected cells; host or cells: HEK293 (transiently transfected), membranes
Put plainly: [3H]flumazenil competition binding, human α3β3γ2. The procedure:
as §1, §2, §3

As to `CCOC(=O)Nc1ccc2c(c1)-c1ncnn1Cc1c(C(=O)OCC)ncn1-2` [Example 43, Ethyl 3-ethoxycarbonylamino-9H-imidazo[1,5-a][1,2,4]triazolo[1,5-d][1,4]benzodiazepine-10-carboxylate], the Ki (as a rule, a measure of affinity in units of concentration, obtained from inhibition or displacement) at GABA A receptor α2β3γ2 was determined as 22 nM; at GABA A receptor α1β3γ2 it was 5.3 nM; on GABA A receptor α5β3γ2 it was 2.6 nM; on GABA A receptor α3β3γ2, 14.4 nM.

`CCNC(=O)Nc1ccc2c(c1)-c1ncnn1Cc1c(C(=O)OCC)ncn1-2` [Example 44, Ethyl 3-(3-ethyl-ureido)-9H-imidazo[1,5-a][1,2,4]triazolo[1,5-d][1,4]benzodiazepine-10-carboxylate]: the Ki at GABA A receptor α2β3γ2 was determined as 26 nM; at GABA A receptor α1β3γ2 it was 20.3 nM; at GABA A receptor α5β3γ2 it was 6.9 nM; on GABA A receptor α3β3γ2, 12.4 nM.
